ChEMBL document CHEMBL1123796, “New antitumor agents containing the anthracene nucleus” (1987)

Assays:
Format in all cases: functional
Mus musculus [1] = assay: Tested for high-dose toxicity in mice at a significant dose of 100 mg/kg administered intraperitoneally after 1 days of treatment; conditions: route intraperitoneal
RPMI-8226 [2] = assay: Effect on DNA synthesis was determined by incorporation of radioligand into 8226 human myeloma cells at a concentration of 10 ug/mL (*: >1 log cell kill)
RPMI-8226 [3] = assay: Effect on protein synthesis was determined by incorporation of radioligand into 8226 human myeloma cells at a concentration of 0.01 ug/mL
Mus musculus [4] = assay: Tested for high-dose toxicity in mice at a significant dose of 52.5 mg/kg administered intraperitoneally after 5 days of treatment; conditions: route intraperitoneal
Mus musculus [5] = assay: Tested for high-dose toxicity in mice at a significant dose of 60 mg/kg administered intraperitoneally after 5 days of treatment; conditions: route intraperitoneal
Mus musculus [6] = assay: Tested for skin toxicity in BALB/c mice at a significant dose of 2.00 mg/kg administered intraintradermally and involved concentric circular areas of ulceration
Mus musculus [7] = assay: Tested for skin toxicity in BALB/c mice at a significant dose of 2.00 mg/kg administered intraintradermally and involved concentric circular areas of erythema
L1210 [8] = assay: Effect on RNA synthesis was determined by incorporation of radioligand into L1210 murine leukemia at a concentration of 1 ug/mL. (*: >1 log cell kill); conditions: Mus musculus
Mus musculus [9] = assay: Tested for high-dose toxicity in mice at a significant dose of 90 mg/kg administered intraperitoneally after 5 days of treatment; conditions: route intraperitoneal
P388 [10] = assay: Antileukemic activity against P-388 in mice at a dose of 80 mg/kg administered intraperitoneally after 1 day treatment; conditions: Mus musculus, P388, ip, 24 h, route intraperitoneal
Mus musculus [11] = assay: Tested for skin toxicity in BALB/c mice at a significant dose of 1.25 mg/kg administered intraintradermally and involved concentric circular areas of induration.
L1210 [12] = assay: Antileukemic activity against L-1210 cells in mice at a dose of 90 mg/kg administered intraperitoneally after 1 day treatment; conditions: Mus musculus, L1210, ip, 24 h, route intraperitoneal
RPMI-8226 [13] = assay: Effect on protein synthesis was determined by incorporation of radioligand into 8226 human myeloma cells at a concentration of 0.5 ug/mL. (*: >1 log cell kill)
Mus musculus [14] = assay: Tested for percent average weekly weight change in mice at a significant dose of 60 mg/kg administered intraperitoneally after 5 days of treatment; conditions: route intraperitoneal
RPMI-8226 [15] = assay: Effect on RNA synthesis was determined by incorporation of radioligand into 8226 human myeloma cells at a concentration of 0.3 ug/mL (*: >50% cell kill)
P388 [16] = assay: Antileukemic activity against P-388 in mice at a dose of 30 mg/kg administered intraperitoneally after 5 day treatment; conditions: Mus musculus, P388, ip, 120 h, route intraperitoneal
RPMI-8226 [17] = assay: Effect on protein synthesis was determined by incorporation of radioligand into 8226 human myeloma cells at a concentration of 10 ug/mL (*: >1 log cell kill)
Mus musculus [18] = assay: Tested for high-dose toxicity in mice at a significant dose of 100 mg/kg administered intraperitoneally after 5 days of treatment; conditions: route intraperitoneal
RPMI-8226 [19] = assay: Effect on protein synthesis was determined by incorporation of radioligand into 8226 human myeloma cells at a concentration of 1 ug/mL. (*: >1 log cell kill)
Mus musculus [20] = assay: Tested for percent average weekly weight change in mice at a significant dose of 45 mg/kg administered intraperitoneally after 5 days of treatment; conditions: route intraperitoneal
Mus musculus [21] = assay: Tested for high-dose toxicity in mice at a significant dose of 45 mg/kg administered intraperitoneally after 5 days of treatment; conditions: route intraperitoneal
RPMI-8226 [22] = assay: Effect on RNA synthesis was determined by incorporation of radioligand into 8226 human myeloma cells at a concentration of 10 ug/mL (*: >1 log cell kill)
L1210 [23] = assay: Effect on DNA synthesis was determined by incorporation of radioligand into L1210 murine leukemia at a concentration of 1 ug/mL. (*: >1 log cell kill); conditions: Mus musculus
L1210 [24] = assay: Effect on DNA synthesis was determined by incorporation of radioligand into L1210 murine leukemia at a concentration of 0.5 ug/mL. (*: >1 log cell kill); conditions: Mus musculus
Mus musculus [25] = assay: Tested for high-dose toxicity in mice at a significant dose of 30 mg/kg administered intraperitoneally after 5 days of treatment; conditions: route intraperitoneal
RPMI-8226 [26] = assay: Effect on DNA synthesis was determined by incorporation of radioligand into 8226 human myeloma cells at a concentration of 0.5 ug/mL. (*: >1 log cell kill)
Mus musculus [27] = assay: Tested for high-dose toxicity in mice at a significant dose of 80 mg/kg administered intraperitoneally after 1 days of treatment; conditions: route intraperitoneal
L1210 [28] = assay: Effect on protein synthesis was determined by incorporation of radioligand into L1210 murine leukemia at a concentration of 0.01 ug/mL; conditions: Mus musculus
Mus musculus [29] = assay: Tested for skin toxicity in BALB/c mice at a significant dose of 0.25 mg/kg administered intraintradermally and involved concentric circular areas of induration.
Mus musculus [30] = assay: Tested for high-dose toxicity in mice at a significant dose of 37.5 mg/kg administered intraperitoneally after 5 days of treatment; conditions: route intraperitoneal
L1210 [31] = assay: Antileukemic activity against L-1210 cells in mice at a dose of 80 mg/kg administered intraperitoneally after 1 day treatment; conditions: Mus musculus, L1210, ip, 24 h, route intraperitoneal
L1210 [32] = assay: Effect on RNA synthesis was determined by incorporation of radioligand into L1210 murine leukemia at a concentration of 10 ug/mL (*: >1 log cell kill); conditions: Mus musculus
Mus musculus [33] = assay: Tested for high-dose toxicity in mice at a significant dose of 80 mg/kg administered intraperitoneally after 5 days of treatment; conditions: route intraperitoneal
L1210 [34] = assay: Effect on DNA synthesis was determined by incorporation of radioligand into L1210 murine leukemia at a concentration of 0.3 ug/mL (*: >50% cell kill); conditions: Mus musculus
[35] = In vitro inhibition of human UACC-66 ovarian tumor cell line growth.; conditions: read-out: ID50 (the source's name)
Mus musculus [36] = assay: Tested for skin toxicity in BALB/c mice at a significant dose of 2.5 mg/kg administered intraintradermally and involved concentric circular areas of ulceration
L1210 [37] = assay: Effect on protein synthesis was determined by incorporation of radioligand into L1210 murine leukemia at a concentration of 0.3 ug/mL (*: >50% cell kill); conditions: Mus musculus
Mus musculus [38] = assay: Tested for percent average weekly weight change in mice at a significant dose of 30 mg/kg administered intraperitoneally; conditions: route intraperitoneal
Mus musculus [39] = assay: Tested for skin toxicity in BALB/c mice at a significant dose of 2.5 mg/kg administered intraintradermally and involved concentric circular areas of induration.
Mus musculus [40] = assay: Tested for skin toxicity in BALB/c mice at a significant dose of 0.25 mg/kg administered intraintradermally and involved concentric circular areas of erythema

SMILES: CN(C)CCNCc1c2ccccc2c(CNCCN(C)C)c2ccccc12
- Lethality (Mus musculus [1]): 60%
- Median day of death (Mus musculus [1]): 0
- inhibition at 10 µg/mL (RPMI-8226 [2]): 82.2%
- inhibition at 0.01 µg/mL (RPMI-8226 [3]): 67.5%
- Lethality (Mus musculus [4]): 100%
- Median day of death (Mus musculus [4]): 4
- Lethality (Mus musculus [5]): 0%
- Extent of skin lesions (Mus musculus [6]): 2.6 cm**2
- Extent of skin lesions (Mus musculus [7]): 3.1 cm**2
- inhibition at 1 µg/mL (L1210 [8]): 6.9%
- Lethality (Mus musculus [9]): 20%
- Median day of death (Mus musculus [9]): 3
- ILS at 80 mg/kg (P388 [10]): 36%
- Extent of skin lesions (Mus musculus [11]): 4.3 cm**2
- ILS at 90 mg/kg (L1210 [12]): 3%
- inhibition at 0.5 µg/mL (RPMI-8226 [13]): 63.5%
- Average weekly weight change (Mus musculus [14]): 0%
- inhibition at 0.3 µg/mL (RPMI-8226 [15]): 0%
- ILS at 30 mg/kg (P388 [16]): 0%
- inhibition at 10 µg/mL (RPMI-8226 [17]): 17.6%
- Lethality (Mus musculus [18]): 80%
- Median day of death (Mus musculus [18]): 8
- inhibition at 1 µg/mL (RPMI-8226 [19]): 45.9%
- Average weekly weight change (Mus musculus [20]): -12%
- Lethality (Mus musculus [21]): 30%
- Median day of death (Mus musculus [21]): 2
- inhibition at 10 µg/mL (RPMI-8226 [22]): 91.4%
- inhibition at 1 µg/mL (L1210 [23]): 48.7%
- inhibition at 0.5 µg/mL (L1210 [24]): 5.8%
- Lethality (Mus musculus [25]): 0%
- inhibition at 0.5 µg/mL (RPMI-8226 [26]): 24.3%
- Lethality (Mus musculus [27]): 10%
- Median day of death (Mus musculus [27]): 12
- inhibition at 0.01 µg/mL (L1210 [28]): 0%
- Extent of skin lesions (Mus musculus [29]): 0.7 cm**2
- Lethality (Mus musculus [30]): 20%
- Median day of death (Mus musculus [30]): 2
- ILS at 80 mg/kg (L1210 [31]): 14%
- inhibition at 10 µg/mL (L1210 [32]): 96.3%
- Lethality (Mus musculus [33]): 20%
- Median day of death (Mus musculus [33]): 4
- inhibition at 0.3 µg/mL (L1210 [34]): 0%
- IC50 [35]: 1600 nM
- Extent of skin lesions (Mus musculus [36]): 3.8 cm**2
- inhibition at 0.3 µg/mL (L1210 [37]): 9.8%
- Average weekly weight change (Mus musculus [38]): -3%
- Extent of skin lesions (Mus musculus [39]): 6.1 cm**2
- Extent of skin lesions (Mus musculus [40]): 0.3 cm**2
